Reference: PubChem BioAssay (NCI)
“And” between values parts separate entries of the source, which are not always exact repeats. Identical values can stand only once.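 Grown in 96-well plates, cells were treated for 48 hours with each compound at five concentrations. Insufficient inhibition: endpoint recorded as highest concentration tested. At the GI50, growth is halved. The concentration for full growth arrest is given as TGI.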

Columns and labels:
Assay in all cases: NCI anticancer screen, dose series, 48 h
MDA-MB-435 = test system: MDA-MB-435
TK-10 renal = test system: TK-10 renal
SN12C renal = test system: SN12C renal
MOLT-4 leukemia = test system: MOLT-4 leukemia
HOP-62 NSCLC = test system: HOP-62 NSCLC
HOP-92 NSCLC = test system: HOP-92 NSCLC
A549 NSCLC = test system: A549 NSCLC
BT-549 breast = test system: BT-549 breast
T-47D breast = test system: T-47D breast
U251 CNS = test system: U251 CNS

| Structure (SMILES) | GI50 (MDA-MB-435) | TGI (MDA-MB-435) | GI50 (TK-10 renal) | TGI (TK-10 renal) | GI50 (SN12C renal) | TGI (SN12C renal) [µM] | GI50 (MOLT-4 leukemia) | TGI (MOLT-4 leukemia) [µM] | GI50 (HOP-62 NSCLC) | TGI (HOP-62 NSCLC) | GI50 (HOP-92 NSCLC) [µM] | TGI (HOP-92 NSCLC) | GI50 (A549 NSCLC) | TGI (A549 NSCLC) [µM] | GI50 (BT-549 breast) | TGI (BT-549 breast) | GI50 (T-47D breast) | TGI (T-47D breast) | GI50 (U251 CNS) | TGI (U251 CNS) |
| --- | --- | --- | --- | --- | --- | --- | --- | --- | --- | --- | --- | --- | --- | --- | --- | --- | --- | --- | --- | --- |
| Clc1ccc(N=CNc2ccc(-c3nc4ccccc4[nH]3)cc2)cc1 | 6.88 µM | > 100 µM | 7.52 µM | > 100 µM | > 100 µM | > 100 | > 100 µM | > 100 | > 100 µM | > 100 µM | 59.1 | > 100 µM | > 100 µM | > 100 | 20.7 µM | 57.3 µM | 42.6 µM | > 100 µM | 20.9 µM | > 100 µM |
| COC(=O)C(NC(=O)c1ccccc1)c1ccc(OC)c(I)c1 (configuration not stated) | 39.6 µM | > 100 µM | 38.5 µM | > 100 µM | > 100 µM | > 100 | 48.9 µM | > 100 | > 100 µM | > 100 µM | 58.6 | > 100 µM | 62.1 µM | > 100 | > 100 µM | > 100 µM | 36.6 µM | > 100 µM | 65.6 µM | > 100 µM |
| COc1cc2nccc(Oc3ccc(NC(=O)C4(C(=O)Nc5ccc(F)cc5)CC4)cc3)c2cc1OC | 7.54 µM and 2.67 µM | > 10 µM and 21.2 µM | > 10 µM and 3.76 µM | > 10 µM and 39.5 µM | 3.97 µM and 1.02 µM | > 54.2 | > 10 µM and 3.44 µM | > 59.1 | > 10 µM and 5.6 µM | > 45.3 µM |  | 8.01 µM and 1.46 µM | > 10 µM and 3.55 µM | > 61.4 | > 10 µM and 8.8 µM | > 10 µM and 72.4 µM | > 10 µM and 4.36 µM | > 100 µM | > 10 µM and 4.31 µM | > 100 µM |
| Cn1c(=O)c(Oc2ccc(F)cc2F)cc2cnc(NC3CCC(O)CC3)nc21 (configuration not stated) | > 25 µM | > 25 µM | 24.6 µM | > 25 µM | > 25 µM | > 25 | > 25 µM | > 25 | > 25 µM | > 25 µM | 0.779 | 19.3 µM | > 25 µM | > 25 | > 25 µM | > 25 µM | > 25 µM | > 25 µM | > 25 µM | > 25 µM |
| COc1ccc(S(=O)(=O)NCCCNc2nccc(-c3c(-c4ccc(F)cc4)nc4sccn34)n2)cc1 | 3.28 µM | > 100 µM | 11.8 µM | > 100 µM | 7.55 µM | > 100 | 5.7 µM | > 100 | 18 µM | > 100 µM |  |  | 4.33 µM | > 100 | 5.42 µM | 59.4 µM | 3.24 µM | 71.3 µM | 7.26 µM | > 100 µM |
| O=C(/C=C/N1CCN(c2cccc(Cl)c2)CC1)c1ccc(Cl)cc1 | 19.3 µM | 50.2 µM | 30.8 µM | > 100 µM | 24.1 µM | 65 | 33.5 µM | > 100 | 48.4 µM | > 100 µM | 15.1 | 57.7 µM | 31.9 µM | > 100 | 19.3 µM | 50.2 µM | 51.2 µM | > 100 µM | 42.1 µM | > 100 µM |
| Brc1ccc2c(c1)-c1ccccc1C1=NCCN12 | 1.06 µM | 2.45 µM | 1.5 µM | 7.18 µM | 1.13 µM | 13 | 0.419 µM | 3.73 | 0.962 µM | 8.02 µM | 1.33 | 5.74 µM | 0.548 µM | 3.58 | 1.88 µM | 6.07 µM | 2.85 µM | 18.4 µM | 1.24 µM | 11.1 µM |
| ClCc1ccc(Cn2cnc3nc(Cl)nc(Cl)c32)cc1 | 1.71 µM | 3.19 µM | 0.43 µM | 0.932 µM | 1.41 µM | 3.15 | 1.68 µM | 5.26 | 1.98 µM | 3.74 µM |  |  | 1.91 µM | 3.64 | 1.87 µM | 3.48 µM | 1.36 µM | 4.82 µM | 0.772 µM | 1.96 µM |
| Oc1ccc(/C=N/Nc2nnc(N/N=C/c3ccc(O)cc3O)c3ccccc23)c(O)c1 | 0.587 µM | 3.67 µM | 0.526 µM | 9.18 µM | 0.507 µM | 6.72 | 0.432 µM |  | 0.509 µM | 0.793 µM and 2.02 µM | 0.496 | 2.65 µM | 0.67 µM | > 28.7 | 0.399 µM | 0.581 µM and 1.94 µM | 0.384 µM | 0.633 µM and 1.64 µM | 0.312 µM | 0.976 µM and 5.34 µM |
| OCCn1c(-c2ccncc2)c(-c2ccc(F)cc2)c2ncccc21 | > 25 µM | > 25 µM | > 25 µM | > 25 µM | > 25 µM | > 25 | > 25 µM | > 25 | > 25 µM | > 25 µM | 9.5 | > 25 µM | > 25 µM | > 25 | > 25 µM | > 25 µM | > 25 µM | > 25 µM | > 25 µM | > 25 µM |
| CC(=O)OC1CCC2(C)C(=CCC3C4CC(CN5CC5)C(=O)C4(C)CCC32)C1 (configuration not stated) | 14.8 µM | 28.4 µM | 1.89 µM | 3.82 µM | 15.4 µM | 30.4 | 3.1 µM | 8.3 | 18.8 µM | 33.6 µM | 11.3 | 24.1 µM | 15.3 µM | 42.2 | 10.4 µM | 22.9 µM | 0.914 µM | 2.7 µM | 13.6 µM | 27.6 µM |
| COc1ccc(-c2ccc(/C=N/n3c(COc4ccc(Cl)c(C)c4)nn(CN4CCOCC4)c3=S)o2)c([N+](=O)[O-])c1 | 21 µM | 49.5 µM | 16.5 µM | 50.5 µM | 21.3 µM | 48.1 | 21.8 µM | 70.1 | 38.6 µM | > 100 µM |  |  | 19.3 µM | 96.8 | 34.6 µM | 85 µM | 44.1 µM | > 100 µM | 30.5 µM | > 100 µM |
